Test results reported in the CheMixHub ionic liquid set.

Assay: xn = mol fraction of the nth substance listed
Details: 100 kPa, x1 = 0.0001802

CCCCC[N+](CCCCC)(CCCCC)CCCCC.O=[N+]([O-])[O-] + CCCCCCCCCCCCOS(=O)(=O)[O-].[Na+] + O
viscosity [mPa·s]
Details	x2 = 1.81e-06	x2 = 3.62e-06	x2 = 5.42e-06	x2 = 7.23e-06	x2 = 9.04e-06	x2 = 1.085e-05	x2 = 1.266e-05	x2 = 1.447e-05	x2 = 1.627e-05	x2 = 1.808e-05
293.15 K	1.017	1.018	1.019	1.02	1.02	1.02	1.021	1.021	1.021	1.021
298.15 K	0.903	0.905	0.906	0.907	0.907	0.908	0.908	0.908	0.909	0.909
303.15 K	0.8	0.801	0.801	0.801	0.801	0.802	0.802	0.803	0.803	0.804
308.15 K	0.713	0.713	0.713	0.713	0.714	0.714	0.715	0.716	0.716	0.716
313.15 K	0.647	0.647	0.648	0.648	0.648	0.649	0.649	0.649	0.65	0.65
318.15 K	0.601	0.601	0.601	0.601	0.602	0.602	0.602	0.602	0.603	0.603
